The record followed here is patent US12427125B2 (priority 2020, dated 2025).

Data set [1] has as its system adult patients infected by SARS-CoV-19 (COVID-19). The following applies: oral DA 30, 60 or 100 mg/kg BID for up to ten days; paper example.
For the next data set, the system named is CD-1 mice. The following applies: for Tolerability: mouse, in vivo.
Data set [2] deals with female CD-1 mice. The settings on record: for BALF Protein Concentration Mean / BALF Protein Conc. Mean / Total Neutrophil Count per Lavage, Mean: group mean. Here is the method: The protocols obtained 30 or 18 female CD-1 mice (Charles River Lab) and monitored daily for body condition and health status during the 3-5 days acclimation period.
At time 0, the mice were weighed. LPS was prepared 1 mg LPS in 1 ml phosphate buffered saline (PBS) to get a final concentration of 1 mg/mL. Dosed 50 μl intratracheally to the mice at time 0. For the N=30 or 18 mice in an incubator, temperature was set to achieve a core temperature of 39° C. as measured by a calibrated thermometer inserted through the top lid of the incubator with the bulb at the level of the mouse cages in the incubator (set temperature knob at 36.7° C.). In addition, a rectal probe to confirmed core temperature in the mice (check right before sacrifice at 24 h post LPS). All mice were given access to food and water at all time. Treatment was initiated three days prior to LPS dosing.
For anesthesia and LPS Dosing, mice were placed in a bell jar, with isoflurane-soaked gauze separated from the mouse by a screen and keep within a scrubber (so the operator isn't anesthetized). Monitored respiratory rate of each mouse and when reduced by half (usually within 5 seconds of going down), then take the mouse out. Each mouse was suspended from incisors across a string tied between two screws on a Plexiglas board and kept at about 70 degrees. Using blunt forceps, grabbed the tongue and hold extended, then instill 50 μL of the LPS solution into the oropharynx using a PennCentury needle/areosolizer. […] Mouse kept in this position for 5-10 seconds to allow distribution of the LPS, then returned to their cage.
Bronchoalveolar lavage fluid (BALF) was collected using rounded tip scissors make a vertical incision though skin but not peritoneum from the lower abdomen up to the jaw. Using two forceps grabbed the edge of the skin and pull apart to get wide exposure to underlying peritoneum and thoracic connective tissue/muscle. Using forceps, picked up peritoneum near the mid abdomen and with rounded tip scissors made a small incision in the peritoneum (avoid cutting gut). Then, while holding the upper edge of the peritoneum, used the rounded tip scissors to extend the incision diagonally to the left upper and right upper quadrants. Moved the liver and intestines out of the way so you can see the underside of the diaphragms. Using the rounded tip scissors, nibbled up toward the diaphragm until you can see the lungs on the other side pull away. Repeated on the other side, being careful to not nick the lungs or else you will not be able to recover lavage. Using the rounded tip scissors, cut through the diaphragm where it inserts on the anterior chest wall. Using the rounded tip scissors and taking care to avoid nicking the lung by moving it away with blunt forceps, cut through the chest wall laterally on both sides until you reach the top of the thorax, then cut across the midline at the top to remove the anterior chest wall. Using forceps pull upward on the heart and cut through at its base to remove. Using the rounded tip scissors, remove the fat pads overlying the trachea taking care not to nick the trachea. Using the rounded tip scissors inserted next to the trachea from the top of the thoracic cavity and kept next to and parallel to the trachea, make a single cut, which allowed removal of the rest of the soft tissue from the trachea but pulling over to the other side and carefully trimming to avoid nicking the trachea. Using sharp forceps carefully placed posterior to the trachea pull suture behind the trachea about 4-5 mm below the cricoid and made a very loose surgical knot (two loops around). Using ophthalmic scissors, very carefully made a cut through the anterior half of the trachea just below the cricoid. Inserted a short blunt needle into tracheal so the tip extended about 5-6 mm below the cricoid and tied a suture tightly with a second knot.

Data set [3] deals with female CD-1 mice.

Read-outs that look alike come from different tables or passages of the source.

For the molecule `CC(=O)[O-].CC[N+](CC)(CC(=O)Nc1c(C)cccc1C)Cc1ccccc1` [DA, Denatonium acetate], the “Decrease in adult respiratory distress syndrome (ARDS), including chronic pulmonary function, diffusion capacity and lung compliance” value in data set [1] is not below 20%. In data set [1], this molecule came in with a Decrease in mortality of approximately 40%. The Patient tolerance entry in data set [1] was “adequate patient tolerance”. Also, the “Other adverse clinical observations” value is reported as “No other adverse clinical observations were noted” in the data set on CD-1 mice (first study, during 3 days of test article administration) and “No other adverse clinical observations were noted” in the data set on female CD-1 mice [3] (second study, during 3 days of test article administration). Moreover, the Tolerability result with CD-1 mice (iv, 3 mg/kg) is given as “well-tolerated”; with CD-1 mice (po, 92.4 mg/kg), “well-tolerated”; with female CD-1 mice [3] (mouse, in vivo, ip, 3 mg/kg), “well-tolerated”; with female CD-1 mice [3] (mouse, in vivo, po, 92.4 mg/kg), “well-tolerated”. Also, the “BALF Protein Concentration Mean” value is 0.638 mg/mL in the data set on female CD-1 mice [2] (first study, DA 3 mg/kg IV QD) and 0.428 mg/mL with female CD-1 mice [2] (first study, DA 92.4 mg/kg PO BID). For the same molecule, the “Effect on BALF protein concentration, in words” value with female CD-1 mice [2] (first study, PO 92.4 mg/kg BID compared with iv 3 mg/kg QD, Table 3, FIG. 1) is on record as “Only oral administration was effective”. Further, the “BALF Protein Conc. Mean” value in the data set on female CD-1 mice [2] (second study, DA 3 mg/kg IP QD) is on record as 0.727 mg/mL; in the data set on female CD-1 mice [2] (second study, DA 92.4 mg/kg PO BID), 0.986 mg/mL. Further, the “Total Neutrophil Count per Lavage, Mean” value in the data set on female CD-1 mice [2] (second study, DA 3 mg/kg IP) was 610,900; in the data set on female CD-1 mice [2] (second study, DA 92.4 mg/kg PO), 535,080. The “Effect on BALF total neutrophil count, in words” value in the data set with female CD-1 mice [2] (second study, PO 92.4 mg/kg compared with ip 3 mg/kg, Table 5, FIG. 2) was “Only oral administration was effective”. Also, the “Changes in BALF protein concentrations, in words” value in the data set on female CD-1 mice [2] (second study, oral and IP dosing, Table 4) is recorded as “nominal (but non-significant) changes”. Besides, the “Mice found dead on Day 1 (within 24 h after LPS instillation)” value with female CD-1 mice [3] (mouse, in vivo) is on record as “one”.
